Experimental data taken from patent publication US20260327191A1, “GSK3a INHIBITORS AND METHODS OF USE THEREOF” (Blueprint Medicines Corporation, priority 2023, published 2026).

How the values were obtained:
GSK3A = biological target: T1, GSK3A (Homo sapiens, UniProt P49840); test: NanoBRET cellular target engagement assay, Nanoluc-GSK3A in HEK293 cells; assay type: cell-based; details: NanoBRET GSK3α IC50, HEK293 cells, tracer K-8, 2 hours, 37° C
T1 construct: expressed in transfected cells
Method: (§1) In the assay, HEK293 cells stably expressing either Nanoluc-GSK3A or Nanoluc-GSK3B were maintained in culture media and seeded, using a multidrop dispenser, at a density of 5×10^3 cells per well in 384-well white plates with 100 ng/ml doxycycline (Sigma) overnight.
(§2) Compound was first diluted in DMSO to generate a 9-point serial dilution then diluted to 10× final concentration in Opti-MEM™ (Gibco). After overnight incubation, cell medium was aspirated from the seeded cells using a microplate automatic washer, then 27 μL of pre-warmed Opti-MEM™ with kinase tracer (K-8) and 3 μL of Opti-MEM™ diluted DMSO or compounds were added per well. Plates were protected from light, mixed in an orbital shaker for 3 min at RT and incubated at 37° C., 5% CO2 in a humidified incubator for 2 hours. After acclimation at RT for 15 min, 15 μL of 3× complete NanoBRET™ Nano-Glo Substrate/Inhibitor (Promega) was added per well. Plates were mixed in an orbital shaker for 3 min at RT and incubated for an additional 30 min. Donor emission at 460 nm and acceptor emission at 647 nm were measured in EnVision multilabel plate reader (Perkin Elmer).

GSK3B [1] = biological target: T2, GSK3B (Homo sapiens, UniProt P49841); test: NanoBRET cellular target engagement assay, Nanoluc-GSK3B in HEK293 cells; assay type: cell-based; set-up: expressed in transfected cells; details: NanoBRET GSK3β IC50, HEK293 cells, tracer K-8, 2 hours, 37° C
Method: as §1, §2

GSK3B [2] = biological target: T2, GSK3B; test: In vitro enzymatic activity assay, GSK3β; assay type: biochemical; set-up: Full length human GSK3α or GSK3B expressed as N-terminal GST fusion proteins; GST (N); purchased Carna Biosciences (Japan); host or cells: baculovirus host; details: 1.0 mM ATP, 1.0 μM peptide substrate, 120 min, 25° C, read-out: Enzyme GSK3β (IC50)
Method: (§3) Full length human GSK3α or GSK3B expressed as N-terminal GST fusion proteins in baculovirus host were purchased from Carna Biosciences (Japan). The kinase was pre-incubated with ATP (adenosine-5′-triphosphate) for 45 min, then incubated with tested compounds for another 45 min in assay buffer that contains 100 mM HEPES (N-2-hydroxyethylpiperazine-N′-2-ethanesulfonic acid), pH 7.5, 10 mM MgCl2, 1.0 mM DTT, and 0.015% Briji-35. […] Percent inhibition was plotted against compound concentration to generate 10-point dose response curve with 3-fold serial dilution starting from 10 μM. IC50 value was determined from the 4-parameter logistic curve fitting.

human GSK3α = biological target: T3, human GSK3α (Homo sapiens, UniProt P49840); test: In vitro enzymatic activity assay, GSK3α; assay type: biochemical; details: 1.0 mM ATP, 1.0 μM peptide substrate, 120 min, 25° C, read-out: Enzyme GSK3α (IC50)
T3 construct: Full length human GSK3α or GSK3B expressed as N-terminal GST fusion proteins; GST (N); purchased Carna Biosciences (Japan); host or cells: baculovirus host
Method: as §3

T2 sequence (P49841 whole entry): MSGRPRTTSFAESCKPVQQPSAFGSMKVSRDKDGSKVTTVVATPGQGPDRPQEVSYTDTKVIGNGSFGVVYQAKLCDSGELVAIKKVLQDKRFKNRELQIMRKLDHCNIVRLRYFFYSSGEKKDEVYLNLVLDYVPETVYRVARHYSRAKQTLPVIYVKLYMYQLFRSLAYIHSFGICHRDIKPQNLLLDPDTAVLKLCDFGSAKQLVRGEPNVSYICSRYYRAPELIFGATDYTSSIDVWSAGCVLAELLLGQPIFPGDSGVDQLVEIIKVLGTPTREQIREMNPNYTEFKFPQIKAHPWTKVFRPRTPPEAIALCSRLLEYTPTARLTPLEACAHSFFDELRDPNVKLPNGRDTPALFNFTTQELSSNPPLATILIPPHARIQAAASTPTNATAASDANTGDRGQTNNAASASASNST
T3 sequence (P49840 whole entry, the tested form may be a part): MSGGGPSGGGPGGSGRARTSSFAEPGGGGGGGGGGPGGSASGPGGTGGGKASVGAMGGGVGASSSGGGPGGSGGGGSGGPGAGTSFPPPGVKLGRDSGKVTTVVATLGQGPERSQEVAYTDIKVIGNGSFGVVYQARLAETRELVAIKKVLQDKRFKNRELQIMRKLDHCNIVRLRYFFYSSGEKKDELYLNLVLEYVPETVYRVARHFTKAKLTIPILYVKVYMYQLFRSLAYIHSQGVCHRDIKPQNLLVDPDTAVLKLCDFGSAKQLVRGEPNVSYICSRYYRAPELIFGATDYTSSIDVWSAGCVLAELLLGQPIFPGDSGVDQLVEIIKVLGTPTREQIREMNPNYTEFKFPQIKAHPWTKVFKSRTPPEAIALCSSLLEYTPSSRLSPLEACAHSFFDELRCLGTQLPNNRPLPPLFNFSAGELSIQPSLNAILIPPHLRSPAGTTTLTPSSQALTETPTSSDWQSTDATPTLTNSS
T1 sequence (P49840 whole entry): as the sequence (P49840 whole entry, the tested form may be a part) above

| IC50 (GSK3A) [nM] | IC50 (GSK3B [1]) [nM] | IC50 (GSK3B [2]) [nM] | IC50 (human GSK3α) [nM] | SMILES |
| --- | --- | --- | --- | --- |
| 1.9 | 132 | 255 | 4.1 | [2H]C([2H])([2H])NC(C)c1cncc(NC(=O)c2c(N)ncn(-c3c(C)cc(C(F)(F)F)cc3Cl)c2=O)c1 (single isomer, unassigned) [Example 16, (R)-4-amino-1-((S)-2-chloro-6-methyl-4-(trifluoromethyl)phenyl)-N-(5-(1-((methyl-d3)amino)ethyl)pyridin-3-yl)-6-oxo-1,6-dihydropyrimidine-5-carboxamide or (S)-4-amino-1-((S)-2-chloro-6-methyl-4-(trifluoromethyl)phenyl)-N-(5-(1-((methyl-d3)amino)ethyl)pyridin-3-yl)-6-oxo-1,6-dihydropyrimidine-5-carboxamide] |
| 7.1 | 429 | 622 | 11.9 | CNC(C)c1cncc(NC(=O)c2c(N)ncn(-c3c(Cl)cc(OC)cc3Cl)c2=O)c1 (single isomer, unassigned) [Example 18, (S)-4-amino-1-(2,6-dichloro-4-methoxyphenyl)-N-(5-(1-(methylamino)ethyl)pyridin-3-yl)-6-oxo-1,6-dihydropyrimidine-5-carboxamide or (R)-4-amino-1-(2,6-dichloro-4-methoxyphenyl)-N-(5-(1-(methylamino)ethyl)pyridin-3-yl)-6-oxo-1,6-dihydropyrimidine-5-carboxamide] |
| 3.5 | 180 | 232 | 3.2 | CNC(C)c1cncc(NC(=O)c2c(N)ncn(-c3c(Cl)cc(OC)cc3Cl)c2=O)c1 (single isomer, unassigned) [Example 19, (R)-4-amino-1-(2,6-dichloro-4-methoxyphenyl)-N-(5-(1-(methylamino)ethyl)pyridin-3-yl)-6-oxo-1,6-dihydropyrimidine-5-carboxamide or (S)-4-amino-1-(2,6-dichloro-4-methoxyphenyl)-N-(5-(1-(methylamino)ethyl)pyridin-3-yl)-6-oxo-1,6-dihydropyrimidine-5-carboxamide] |
| 2.8 | 147 | 298 | 4.1 | CCOc1cc(Cl)c(-n2cnc(N)c(C(=O)Nc3cncc(C(C)NC)c3)c2=O)c(Cl)c1 (single isomer, unassigned) [Example 24, (R)-4-amino-1-(2,6-dichloro-4-ethoxyphenyl)-N-(5-(1-(methylamino)ethyl)pyridin-3-yl)-6-oxo-1,6-dihydropyrimidine-5-carboxamide or (S)-4-amino-1-(2,6-dichloro-4-ethoxyphenyl)-N-(5-(1-(methylamino)ethyl)pyridin-3-yl)-6-oxo-1,6-dihydropyrimidine-5-carboxamide] |
| 1.7 | 42.5 | 54.2 | 2.4 | COCc1cc(C)c(-n2cnc(N)c(C(=O)Nc3cncc4c3CCC4(C)N)c2=O)c(C)c1 (single isomer, unassigned) [Example 27, (R)-4-amino-N-(7-amino-7-methyl-6,7-dihydro-5H-cyclopenta[c]pyridin-4-yl)-1-(4-(methoxymethyl)-2,6-dimethylphenyl)-6-oxo-1,6-dihydropyrimidine-5-carboxamide or (S)-4-amino-N-(7-amino-7-methyl-6,7-dihydro-5H-cyclopenta[c]pyridin-4-yl)-1-(4-(methoxymethyl)-2,6-dimethylphenyl)-6-oxo-1,6-dihydropyrimidine-5-carboxamide] |
| 5 | 418 | 405 | 6.9 | COC[C@](C)(N)c1cncc(NC(=O)c2c(N)ncn(-c3c(Cl)cc(OC)cc3Cl)c2=O)c1 (single isomer, unassigned) [Example 31, (R)-4-amino-N-(5-(2-amino-1-methoxypropan-2-yl)pyridin-3-yl)-1-(2,6-dichloro-4-methoxyphenyl)-6-oxo-1,6-dihydropyrimidine-5-carboxamide or (S)-4-amino-N-(5-(2-amino-1-methoxypropan-2-yl)pyridin-3-yl)-1-(2,6-dichloro-4-methoxyphenyl)-6-oxo-1,6-dihydropyrimidine-5-carboxamide] |
